Reference: article PMC4364940, “Human β-Defensin 4 with Non-Native Disulfide Bridges Exhibit Antimicrobial Activity” (PLoS ONE, 2015)
Like-named read-outs stand apart in the source and are kept apart here. Positions of bridges follow the written chain, without caps; N, C: chain ends. Residues, ends and D or L forms follow the SMILES beside them. *: point of attachment. Acm = CC(=O)NC*; tBu = CC(C)(C)*

How the values were obtained:
[1] = system: Escherichia coli (MG1655); conditions: pH 7.4
[2] = system: Staphylococcus aureus (NCTC 8530); conditions: pH 7.4
E. coli [3] = assay type: cell-based, Escherichia coli
P. aeruginosa [4] = assay type: cell-based, Pseudomonas aeruginosa; conditions: peptide treated cells plated at fixed time intervals during 2 hrs of incubation
Description: The antibacterial activity of peptides was examined against Gram-negative bacteria Escherichia coli (MG1655), Pseudomonas aeruginosa (NCTC 6750) and Gram-positive bacteria Staphylococcus aureus (NCTC 8530) using colony counting assay. Bacteria were sub-cultured on nutrient broth (Difco, Detroit, MI, US) at 37°C to mid-logarithmic phase from an overnight grown culture. The cells were harvested and washed with 10 mM sodium phosphate buffer (pH 7.4). 100 μl of suspension containing 10^6 cfu/ml was incubated with varying concentration of peptides for 2 hrs at 37°C. The cells were spread on nutrient agar plates and incubated for 14–18 hrs at 37°C. The numbers of colony forming units (cfu) was counted and minimum concentration at which more than 99% of killing observed was taken as lethal concentration (LC). Fungicidal activity against Candida albicans (ATCC 18804) was also determined as described for the bacteria. […] The effect of loss of proton motif force (pmf) in bacteria and C. albicans on the antimicrobial activity of the peptides was determined by adding the metabolic inhibitor like carbonyl cyanide m-chlorophenylhydrazone (CCCP) (50 μM) into the cell suspension 20 mins prior to the peptides treatment. The rate of killing with respect to time was determined by plating the peptide treated cells at fixed time intervals during 2 hrs of incubation. […]

E. coli [5] = assay type: cell-based, Escherichia coli; remark: listed apart in the source
P. aeruginosa [6] = assay: Salt sensitivity assay (150 mM NaCl); assay type: cell-based, Pseudomonas aeruginosa; conditions: peptides at lethal concentrations
S. aureus = assay type: cell-based, Staphylococcus aureus
[7] = system: Pseudomonas aeruginosa (NCTC 6750); conditions: NCTC 6750, 2 h, pH 7.4
[8] = system: Candida albicans (ATCC 18804); conditions: ATCC 18804, 2 h

In the case of CC[C@H](C)[C@@H]1NC(=O)[C@H](CCCNC(=N)N)NC(=O)[C@H](Cc2ccc(O)cc2)NC(=O)[C@H](CCC(=O)O)NC(=O)[C@H](CCC(N)=O)NC(=O)[C@H](CO)NC(=O)[C@H](CCCNC(=N)N)NC(=O)[C@H](CCCCN)NC(=O)[C@H](CCCCN)NC(=O)[C@H](CCCNC(=N)N)NC(=O)[C@@H](NC(=O)[C@H](CCCNC(=N)N)NC(=O)[C@H](C)NC(=O)[C@@H](NC(=O)CNC(=O)[C@H](Cc2ccc(O)cc2)NC(=O)CNC(=O)[C@H](CSC(C)(C)C)NC(=O)[C@H](CSCNC(C)=O)NC(=O)[C@@H](NC(=O)[C@H](CCCNC(=N)N)NC(=O)[C@H](CC(=O)O)NC(=O)[C@H](CC(C)C)NC(=O)[C@@H](N)CCC(=O)O)[C@@H](C)CC)[C@@H](C)O)CSSC[C@@H](C(=O)N[C@@H](CC(C)C)C(=O)N[C@@H](CCCNC(=N)N)C(=O)N[C@@H](CCCCN)C(=O)O)NC(=O)[C@H](CSCNC(C)=O)NC(=O)[C@H](C)NC(=O)[C@H](Cc2ccc(O)cc2)NC(=O)[C@H]([C@@H](C)O)NC(=O)[C@H](CC(N)=O)NC(=O)[C@@H]2CCCN2C(=O)[C@H](CSC(C)(C)C)NC(=O)[C@H](CCCNC(=N)N)NC(=O)CNC1=O [Peptide H4-1dΔEF] (H-ELDRIC(Acm)C(tBu)GYGTARCRKKRSQEYRIGRC(tBu)PNTYAC(Acm)CLRK-OH; disulfide 14-34; N-terminus and C-terminus assumed), the “lethal concentration (LC) against E. coli” value [1] is reported as 2.5 µM and the “lethal concentration (LC) against S. aureus” value [2] is reported as 3.5 µM.

For CC[C@H](C)[C@@H]1NC(=O)[C@H](CCCNC(=N)N)NC(=O)[C@H](Cc2ccc(O)cc2)NC(=O)[C@H](CCC(=O)O)NC(=O)[C@H](CCC(N)=O)NC(=O)[C@H](CO)NC(=O)[C@H](CCCNC(=N)N)NC(=O)[C@H](CCCCN)NC(=O)[C@H](CCCCN)NC(=O)[C@H](CCCNC(=N)N)NC(=O)[C@@H](NC(=O)[C@H](CCCNC(=N)N)NC(=O)[C@H](C)NC(=O)[C@@H](NC(=O)CNC(=O)[C@H](Cc2ccc(O)cc2)NC(=O)CNC(=O)[C@H](CO)NC(=O)[C@H](CO)NC(=O)[C@@H](NC(=O)[C@H](CCCNC(=N)N)NC(=O)[C@H](CC(=O)O)NC(=O)[C@H](CC(C)C)NC(=O)[C@@H](N)CCC(=O)O)[C@@H](C)CC)[C@@H](C)O)CSSC[C@@H](C(=O)N[C@@H](CC(C)C)C(=O)N[C@@H](CCCNC(=N)N)C(=O)N[C@@H](CCCCN)C(=O)O)NC(=O)[C@H](CO)NC(=O)[C@H](C)NC(=O)[C@H](Cc2ccc(O)cc2)NC(=O)[C@H]([C@@H](C)O)NC(=O)[C@H](CC(N)=O)NC(=O)[C@@H]2CCCN2C(=O)[C@H](CO)NC(=O)[C@H](CCCNC(=N)N)NC(=O)CNC1=O [H4-1d[S]ΔEF] (H-ELDRISSGYGTARCRKKRSQEYRIGRSPNTYASCLRK-OH; disulfide 14-34; N-terminus and C-terminus assumed), the “lethal concentration (LC) against E. coli” value [1] was 3 µM and the “lethal concentration (LC) against S. aureus” value [2] was 5 µM.

CC[C@H](C)[C@@H]1NC(=O)[C@H](CCCNC(=N)N)NC(=O)[C@H](Cc2ccc(O)cc2)NC(=O)[C@H](CCC(=O)O)NC(=O)[C@H](CCC(N)=O)NC(=O)[C@H](CO)NC(=O)[C@H](CCCNC(=N)N)NC(=O)[C@@H]2CSSC[C@@H](C(=O)N[C@@H](CC(C)C)C(=O)N[C@@H](CCCNC(=N)N)C(=O)N[C@@H](CCCCN)C(=O)O)NC(=O)[C@@H]3CSSC[C@H](NC(=O)[C@@H](NC(=O)[C@H](CCCNC(=N)N)NC(=O)[C@H](CC(=O)O)NC(=O)[C@H](CC(C)C)NC(=O)[C@@H](N)CCC(=O)O)[C@@H](C)CC)C(=O)NCC(=O)N[C@@H](Cc4ccc(O)cc4)C(=O)NCC(=O)N[C@@H]([C@@H](C)O)C(=O)N[C@@H](C)C(=O)N[C@@H](CCCNC(=N)N)C(=O)N[C@@H](CSSC[C@H](NC(=O)[C@H](CCCNC(=N)N)NC(=O)CNC1=O)C(=O)N1CCC[C@H]1C(=O)N[C@@H](CC(N)=O)C(=O)N[C@@H]([C@@H](C)O)C(=O)N[C@@H](Cc1ccc(O)cc1)C(=O)N[C@@H](C)C(=O)N3)C(=O)N[C@@H](CCCNC(=N)N)C(=O)N[C@@H](CCCCN)C(=O)N[C@@H](CCCCN)C(=O)N2 [HBD4, Human β-defensin 4] (H-ELDRICGYGTARCRKKCRSQEYRIGRCPNTYACCLRK-OH; disulfide 6-33, 13-27, 17-34; N-terminus and C-terminus assumed) was tested, and the “time of incubation for killing of E. coli” value (E. coli [3]) was ≤ 30 min, the “rate of killing of P. aeruginosa” value (P. aeruginosa [4]) was “more rapidly as compared to the analogs” and the “activity against E. coli in the presence of 150 mM NaCl” value (E. coli [5]) was “significant loss in activity”. The “salt sensitivity against E. coli in the absence of pmf” value (E. coli [5]) was “attenuation of activity by NaCl is not observed”, the “activity against P. aeruginosa in the presence of 150 mM NaCl” value (P. aeruginosa [6]) was “significant loss in activity” and the “activity against S. aureus in the presence of 150 mM NaCl” value (S. aureus) was “significant loss in activity”. The “lethal concentration (LC) against E. coli” value ([1]; MG1655, 2 h) was 5 (0.53) μM, the “lethal concentration (LC) against P. aeruginosa” value [7] was 12 (1.35) μM and the “lethal concentration (LC) against S. aureus” value ([2]; NCTC 8530, 2 h) was 15 (0.47) μM. The “minimum fungicidal concentration (MFC) against C. albicans” value [8] was 7.5 (0.91) μM.

With CC[C@H](C)[C@@H]1NC(=O)[C@H](CCCNC(=N)N)NC(=O)[C@H](Cc2ccc(O)cc2)NC(=O)[C@H](CCC(=O)O)NC(=O)[C@H](CCC(N)=O)NC(=O)[C@H](CO)NC(=O)[C@H](CCCNC(=N)N)NC(=O)[C@H](CCCCN)NC(=O)[C@H](CCCCN)NC(=O)[C@H](CCCNC(=N)N)NC(=O)[C@@H](NC(=O)[C@H](CCCNC(=N)N)NC(=O)[C@H](C)NC(=O)[C@@H](NC(=O)CNC(=O)[C@H](Cc2ccc(O)cc2)NC(=O)CNC(=O)[C@H](CO)NC(=O)[C@H](CO)NC(=O)[C@@H](NC(=O)[C@H](CCCNC(=N)N)NC(=O)[C@H](CC(=O)O)NC(=O)[C@H](CC(C)C)NC(=O)[C@H](CCC(=O)O)NC(=O)[C@H](Cc2ccccc2)NC(=O)[C@@H](N)CCC(=O)O)[C@@H](C)CC)[C@@H](C)O)CSSC[C@@H](C(=O)N[C@@H](CC(C)C)C(=O)N[C@@H](CCCNC(=N)N)C(=O)N[C@@H](CCCCN)C(=O)O)NC(=O)[C@H](CO)NC(=O)[C@H](C)NC(=O)[C@H](Cc2ccc(O)cc2)NC(=O)[C@H]([C@@H](C)O)NC(=O)[C@H](CC(N)=O)NC(=O)[C@@H]2CCCN2C(=O)[C@H](CO)NC(=O)[C@H](CCCNC(=N)N)NC(=O)CNC1=O [H4-1d[S]] (H-EFELDRISSGYGTARCRKKRSQEYRIGRSPNTYASCLRK-OH; disulfide 16-36) the “lethal concentration (LC) against E. coli” value [1] was 3 µM and the “lethal concentration (LC) against S. aureus” value [2] was 5 µM.
